Data taken from patent publication US20050084528A1, “Anti-platelet aggregation compositions” (priority 2003, published 2005).
Where two headings read alike, the source gives them in different places.

Tests used:
[1] = test system: platelet aggregation induced by AA; assay: Ex vivo platelet aggregation in platelet rich plasma of volunteers after a single oral dose, induced by arachidonic acid (1.6 mM); parameters: species or system human; settings: for inhibition of platelet aggregation induced by AA (in words): single oral dose, 24 hours
Method: (§1) The PRP samples were treated in vitro with calcium ionophore (A23187, 2.5 μM) or arachidonic acid (AA, 1.6 mM) to induce maximal aggregation. Platelet aggregation was monitored using a Dual-channel Lumi-aggregometer (Model 400, Chronolog Corporation, USA) using 0.45 ml samples of PRP. The resulting aggregation was recorded for all of the samples and a comparison was made between the pre- and post-test drug ingestion aggregation levels. The data was analysed using the Student's t-test and differences were considered significant when probability (p) was <0.05.

[2] = test system: platelet aggregation induced by A23187; assay: Ex vivo platelet aggregation in platelet rich plasma of volunteers after a single oral dose, induced by calcium ionophore A23187 (2.5 μM); parameters: species or system human; settings: for % Inhibition A23187: aspirin 10 mg single oral dose, blood 24 hours after ingestion vs pre-dose, PRP, A23187 2.5 μM; for inhibition of platelet aggregation induced by A23187 (in words): single oral dose, 24 hours
Method: as §1

[3] = test system: platelet aggregation induced by AA; settings: Saeed et al. 1998; cited from earlier work
[4] = test system: platelet aggregation induced by PAF; settings: Saeed et al. 1998; cited from earlier work
[5] = test system: platelet aggregation induced by adrenaline; settings: Saeed et al. 1998; cited from earlier work
[6] = aspirin at a dose of 20 mg or 40 mg
[7] = nimesulide at doses of 25 or 50 mg

| Compound | % Inhibition AA ([1]; aspirin 10 mg single oral dose, blood 24 hours after ingestion vs pre-dose, PRP, AA 1.6 mM) [%] | inhibition of platelet aggregation induced by AA (in words) ([1]; aspirin 10 mg) | inhibition of platelet aggregation induced by AA (in words) [1, 6] | % Inhibition A23187 [2] [%] | % Inhibition A23187 ([2]; listed as aspirin) | inhibition of platelet aggregation induced by A23187 (in words) [2, 6] | inhibition of platelet aggregation induced by AA (in words) [3] | inhibition of platelet aggregation induced by PAF (in words) [4] | inhibition of platelet aggregation induced by AA (in words) [1, 7] | inhibition of platelet aggregation induced by A23187 (in words) [2, 7] | inhibition of platelet aggregation induced by adrenaline (in words) [5] |
| --- | --- | --- | --- | --- | --- | --- | --- | --- | --- | --- | --- |
| CC(=O)Oc1ccccc1C(=O)O [Aspirin, 2-acetoxybenzoic acid] | 4 | ineffective | effectively inhibited | 27 | about 25% | effectively inhibited | inhibit | inhibit |  |  |  |
| CS(=O)(=O)Nc1ccc([N+](=O)[O-])cc1Oc1ccccc1 [Nimesulide, N-(4-nitro-2-phenoxyphenyl)methanesulfonamide] |  |  |  |  |  |  | inhibit | inhibit | effectively inhibited | effectively inhibited | inhibits |
